The values below come from patent US12054502B2, “Multifunctional immunity-targeted micromolecule anti-cancer medicine Bestazomib (Bestazomib) and preparation method and application thereof” (SHANDONG HUBBLE KISEN BIOLOGICAL TECHNOLOGY CO., LTD., priority 2018, dated 2024).

Assay [1] relates to Human leukemia K562 cell line. Description: MTT cell proliferation inhibition, K562. Type of assay: cell-based. The note with it: average of three tests, read-out: IC50 tumor cell proliferation, K562. The source says:
(§1) The in vitro cell proliferation inhibitory activity test of the target compound adopts the MTT method. Human leukemia K562 cell line, human myeloma U266 cell line, human lung cancer A549 cell, human prostate cancer PC-3 cell line, human lymphoma U937 cell line, human liver cancer PLC/PRF/5 cell line, and human embryonic kidney cell HEK293, human normal hepatocyte HL7702 were taken, and all adopted routine culture. Logarithmic growth phase cells were used in the experiment. The cell suspensions of the above cells were taken and counted under an inverted microscope, and the medium was added to adjust the number of cells to 1×10^5/mL. A 96-well cell culture plate was taken for cell inoculation and drug experiment. The peripheral holes are not used (filled with sterile PBS). Blank control group, negative control group, positive control group and a drug experiment group were set up. The blank control group only added 150 L/Well of cell culture solution, the negative control group was inoculated with 100 µL/well of cell suspension and 50 µL/well of cell culture medium was added, the positive control group was inoculated with 100 µL/well of cell suspension and 50 µL/well of positive control drug solution was added, and the drug experiment group was inoculated with 100 L/Well of cell suspension and 50 µL/well of the test compound solution was added, the positive control group and the drug experimental group are respectively set up with 5 different final drug concentrations: […], 3 parallel re-wells for each drug concentration. After the drug was added, the 96-well cell culture plate was incubated at 37° C., 5% CO2 and saturated humidity for 48 hours, and 10 μL of 0.5% MTT staining solution was added to each well. […] Measure the OD value of each well with a microplate reader at a wavelength of 570 nm, and the cell growth inhibition rate is calculated according to the following formula: […]

Assay [2] deals with human myeloma U266 cell line. Description: MTT cell proliferation inhibition, U266. Type of assay: cell-based. The note with it: average of three tests, read-out: IC50 tumor cell proliferation, U266.
From the text: as §1

The test system of assay [3] is human lung cancer A549 cell. The assay is described as follows: MTT cell proliferation inhibition, A549. Type of assay: cell-based. The note with it: average of three tests, read-out: IC50 tumor cell proliferation, A549.
From the text: as §1

Assay [4] deals with human prostate cancer PC-3 cell line. The assay is described as follows: MTT cell proliferation inhibition, PC-3. Type of assay: cell-based. The following applies: average of three tests, read-out: IC50 tumor cell proliferation, PC-3.
From the text: as §1

The test system of assay [5] is human lymphoma U937 cell line. Description: MTT cell proliferation inhibition, U937. Type of assay: cell-based. The following applies: average of three tests, read-out: IC50 tumor cell proliferation, U937.
From the text: as §1

For assay [6], the system named is human liver cancer PLC/PRF/5 cell line. Description: MTT cell proliferation inhibition, PLC/PRF/5. Type of assay: cell-based. The following applies: average of three tests, read-out: IC50 tumor cell proliferation, PLC/PRF/5.
From the text: as §1

For assay [7], the target named is Aminopeptidase N (APN) (Homo sapiens (Human), UniProt P15144). Description: Inhibition of aminopeptidase N in vitro (L-leucyl p-nitroaniline substrate, absorbance 405 nm). Type of assay: biochemical. The note with it: average of three tests. The text has this:
Aminopeptidase N interacts with its commercial substrate L-leucyl p-nitroaniline (purchased from Sigma) to produce p-nitroaniline that is absorbed at 405 nm, and the concentration of p-nitroaniline is positively correlated to the enzyme activity. Measure the absorbance at 405 nm, and calculate the inhibition rate based on the absorbance of the inhibitor group and the control group, and calculate the IC50 value.

In assay [8] the target is 20S Proteasome (Homo sapiens (Human), UniProt P28074). Description: 20S proteasome detection kit, in vitro proteasome activity test (7-AMC fluorescence). Type of assay: biochemical. The note with it: average of three tests. The text has this: The proteasome interacts with its substrate to produce the fluorescent substance 7-amino-4-methylcoumarin (7-AMC), and the concentration of 7-AMC is positively correlated with the activity of the proteasome. Measure the fluorescence intensity at 380/460 nm to calculate the inhibition rate based on the absorbance of the inhibitor group and the control group, and calculate the IC50 value.

The test system of assay [9] is human embryonic kidney cell HEK293. Description: MTT proliferation inhibition on normal human cells, HEK293. Type of assay: cell-based. The note with it: 48 hours, average of three tests. The source says: (§2) The in vitro cell proliferation inhibitory activity test of the target compound adopts the MTT method. Human leukemia K562 cell line, human myeloma U266 cell line, human lung cancer A549 cell, human prostate cancer PC-3 cell line, human lymphoma U937 cell line, human liver cancer PLC/PRF/5 cell line, and human embryonic kidney cell HEK293, human normal hepatocyte HL7702 were taken, and all adopted routine culture. Logarithmic growth phase cells were used in the experiment. The cell suspensions of the above cells were taken and counted under an inverted microscope, and the medium was added to adjust the number of cells to 1×10^5/mL. A 96-well cell culture plate was taken for cell inoculation and drug experiment. The peripheral holes are not used (filled with sterile PBS). Blank control group, negative control group, positive control group and a drug experiment group were set up. […] Measure the OD value of each well with a microplate reader at a wavelength of 570 nm, and the cell growth inhibition rate is calculated according to the following formula: […]

In assay [10] the test system is human normal hepatocyte HL7702. Description: MTT proliferation inhibition on normal human cells, HL7702. Type of assay: cell-based. The note with it: L02, 48 hours, average of three tests.
From the text: as §2

For assay [11], the system named is macrophages. Description: Function test of clearance rate of charcoal particles (macrophage phagocytosis) in mice. Type of assay: in vivo, Kunming mice. The note with it: for carbon clearance index (K) / phagocytosis index(α): mice, administered 2 weeks, mean ± standard deviation. On the procedure: The mononuclear macrophage system is a very important defense system, which has a powerful ability to swallow and clear foreign particles. When a certain concentration of charcoal particles enters the body through the tail vein of the mice, they are carried to the liver, spleen, etc. by the flow of blood, and the macrophages of these organs can remove these charcoal particles. Within a certain concentration range, the rate of macrophages' elimination of charcoal particles is exponentially related to their dose, that is, the rate of phagocytosis is directly proportional to the concentration of charcoal particles in the blood. Therefore, taking the logarithm of the concentration of charcoal particles in the blood of mice as the ordinate and the time as the abscissa, the slope K represents the phagocytic rate of macrophages, but this is an uncorrected phagocytic index. In fact, its phagocytic activity is also related to the weight of the liver and spleen of mice. Different weights result in different K values. Therefore, it is generally expressed by the corrected phagocytic index α, which reflects the phagocytic activity per unit tissue weight. The calculation formulas of K and a are as follows: K=(log A1−log A2)/(t2−t1) α=(k^1/3×body weight)/(liver weight+spleen weight)
Materials: Kunming mice (female, 4-5 weeks old), Indian ink, normal saline, Na2CO3 solution (0.1% g/v), UV ultraviolet visible photometer.
Kunming mice were randomly divided into groups and administered for 2 weeks. One hour after the last administration, each mouse was injected intravenously with 0.1 mL/10 g of Indian ink 5 times diluted with normal saline, and started timing immediately after injection, 20 μL of blood samples were accurately collected from the orbital venous plexus and added into 2 mL of 0.1% Na2CO3 solution at 2 min (t1) and 10 min (t2) time points, respectively. After mixing evenly, use 0.1% Na2CO3 solution as the control group, each administration group was the experimental group, the absorbance at two time points of t1 and t2 were measured by ultraviolet spectrophotometer at 600 nm, and counted as A1 and A2. The clearance index is calculated by the calculation formula of the above K value. In addition, after the completion of blood collection, the mice were sacrificed by neck removal, and the liver and spleen were taken out and weighed. Calculate the phagocytic index α.

The test system of assay [12] is liver cancer H22. The assay is described as follows: Inhibition of liver cancer H22 lung metastasis in mice. The following applies: intragastric administration, 2.69-4.48 mg/kg, two cycles; FIG. 1-4. Type of assay: in vivo, Kunming mice. The method, then:
Take well-grown H22 mice with liver cancer, extract ascites, add sterile PBS solution to dilute to a concentration of 2.5×10^7/mL, and inoculate Kunming mice through tail vein with 200 μL each. The Kunming mice with overweight or underweight were excluded, randomly grouped, and the drug was administrated according to the dosing schedule.
The Kunming mice inoculated with H22 tumors were weighed and randomly divided into the following 6 groups, with 7 mice in each group. […] The mice were sacrificed 13 days after the inoculation. The calculation formula for the inhibition rate of lung metastasis of liver cancer was as follows: […]

Assay [13] has as its system H22 liver ascites model. Description: Survival test of H22 liver ascites model. Type of assay: in vivo, Kunming mice. The following applies: equal molar amount with Ixazomib, FIG. 5-6. On the procedure: Take well-grown H22 mice with liver cancer, extract ascites, add sterile PBS solution to dilute to a concentration of 2.5×10^7/mL, and inoculate the abdominal cavity of Kunming mice with 200 μL each. 5 days later, the animals were randomly grouped to administrate the drug. The day of inoculation was the first day. The body weight of the animals was recorded at the time of administration. The mice were randomly weighed and divided into the following 6 groups, with 10 mice in each group. […] The mice were administered according to the predetermined dosage, weighed and recorded respectively.
(§3) Use Origin7.5 software's one-way analysis of variance (One-Way ANOVA) function to calculate the overall difference; use t-test to compare each group with the blank group, and the life extension rate of each drug group was calculated by the following formula: […]

For assay [14], the system named is B16F10 melanoma cells. The assay is described as follows: Subcutaneous tumor survival test with B16F10 melanoma cells. Type of assay: in vivo, C57 mice. On the procedure: The B16F10 melanoma cells in the logarithmic growth phase were taken, diluted with sterile PBS solution to a concentration of 1.5×10^7 cells/mL, and inoculated them subcutaneously in C57 mice with 150 μL each. 5 days later, the animals were randomly assigned to administer the drug. The day of inoculation was the first day. The body weight of the animals was recorded at the time of administration. The mice were randomly weighed and divided into the following 5 groups. […] The mice were administered according to the predetermined dosage, weighed and recorded respectively. Continuous observation until the death of the mouse was the end of observation, and the time of death of each mouse was recorded. The time of death of the mice in each group was counted.
as §3

Where [15] appears, read: Homo sapiens, PLC-PRF-5, 48 hours.

Counter-ions that a name gives are not always drawn. Like-named read-outs stand apart in the source and are kept apart here.

Aminopeptidase N (APN), sequence (P15144 whole entry, species assumed): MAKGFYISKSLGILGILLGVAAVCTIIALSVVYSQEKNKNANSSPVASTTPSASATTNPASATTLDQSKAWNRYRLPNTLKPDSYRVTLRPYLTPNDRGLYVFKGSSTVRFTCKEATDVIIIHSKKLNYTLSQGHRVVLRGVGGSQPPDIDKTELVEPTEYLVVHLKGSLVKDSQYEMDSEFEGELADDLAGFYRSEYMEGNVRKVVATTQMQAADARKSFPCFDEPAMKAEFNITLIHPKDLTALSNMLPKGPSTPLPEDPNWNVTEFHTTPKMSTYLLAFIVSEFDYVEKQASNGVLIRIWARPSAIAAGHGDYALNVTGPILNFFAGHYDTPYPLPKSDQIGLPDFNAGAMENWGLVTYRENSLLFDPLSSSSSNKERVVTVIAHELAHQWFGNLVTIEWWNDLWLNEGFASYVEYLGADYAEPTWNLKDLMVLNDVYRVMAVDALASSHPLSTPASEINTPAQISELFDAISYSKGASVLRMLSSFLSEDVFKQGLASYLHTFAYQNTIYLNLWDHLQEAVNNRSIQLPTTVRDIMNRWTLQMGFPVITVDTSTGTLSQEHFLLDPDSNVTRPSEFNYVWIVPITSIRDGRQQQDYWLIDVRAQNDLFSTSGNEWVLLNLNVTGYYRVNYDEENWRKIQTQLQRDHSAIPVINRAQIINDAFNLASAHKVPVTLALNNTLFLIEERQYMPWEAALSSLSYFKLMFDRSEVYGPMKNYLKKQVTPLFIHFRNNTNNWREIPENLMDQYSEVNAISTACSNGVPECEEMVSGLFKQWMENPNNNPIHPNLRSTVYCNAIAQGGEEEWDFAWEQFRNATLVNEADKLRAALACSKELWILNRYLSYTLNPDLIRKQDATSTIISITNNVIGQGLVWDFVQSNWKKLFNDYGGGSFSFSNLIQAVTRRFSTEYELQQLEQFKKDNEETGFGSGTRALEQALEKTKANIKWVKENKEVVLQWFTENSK

Take `CC(C)C[C@H](NC(=O)[C@@H](O)[C@H](N)Cc1ccccc1)C(=O)O` [Bestatin, reference compound]: the IC50 in assay [1] (48 hours), in assay [2] (48 hours), in assay [3] (48 hours), in assay [4] (48 hours), in assay [5] (48 hours) and in [6] (48 hours) was above 200 µM in each case.

As to `CC(C)C[C@H](NC(=O)[C@@H](O)[C@H](N)Cc1ccccc1)B1OC(=O)C(CC(=O)O)(CC(=O)O)O1` [Bestazomib Citrate, 2,2′-(2-((R)-1-((2S,3R)-3-amino-2-hydroxy-4-phenylbutanoylamino)-3-methylbutyl)-5-oxo-1,3,2-dioxaborolan-4,4-diyl) diacetic acid], the IC50 came out at 2.14 µM in assay [7]; 8.56 µM in assay [8]; 12.3 ± 1.46 µM in [1] (Homo sapiens, K562, 48 hours); 21.7 ± 1.87 µM in assay [2] (Homo sapiens, U-266, 48 hours); 63.6 ± 5.71 µM in [3] (Homo sapiens, A549, 48 hours); 45.6 ± 3.16 µM in assay [4] (Homo sapiens, PC-3, 48 hours). Moreover, the IC50 worked out at 6.42 ± 0.64 µM in assay [5] (Homo sapiens, U-937, 48 hours); 54.7 ± 4.12 µM in assay [6] (setting [15]); 446 ± 19.4 µM in assay [9]; 371 ± 70.9 µM in assay [10]. Also, in [11] (compared with positive control Ixazomib), the “phagocytic ability of macrophages in mice” value is given as “significantly stronger than that of the positive control Ixazomib”. For the same compound, the “carbon clearance index (K)” value in [11] (high-dose 4.48 mg/kg/4 d po.) was found to be 0.063 ± 0.0002; in assay [11] (low-dose 2.69 mg/kg/4 d po.), 0.066 ± 0.0077; in assay [11] (medium-dose 3.59 mg/kg/4 d po.), 0.076 ± 0.0016. The “phagocytosis index(α)” value in [11] (high-dose 4.48 mg/kg/4 d po.) is recorded as 21.628 ± 0.026; in [11] (low-dose 2.69 mg/kg/4 d po.), 24.842 ± 0.969; in assay [11] (medium-dose 3.59 mg/kg/4 d po.), 21.620 ± 0.154. Also, the “anti-tumor activity (H22 lung metastasis)” value in assay [12] is reported as “strong anti-tumor activity”. The “survival time of mice” value in assay [13] is reported as “better than the prolonged time of the positive drug Ixazomib”. For the same compound, the “survival time of B16F10 melanoma mice” value in [14] (4, 6, 9 mg/kg/4d, FIG. 7) is given as “significantly prolong the survival time”. Besides, the “survival time of mice compared with Ixazomib” value in assay [14] (medium-dose 6 mg/kg/4d and high-dose 9 mg/kg/4d vs Ixazomib 4 mg/kg/4d) was “better survival time of mice in the medium-dose and high-dose than the positive drug Ixazomib”.

In the case of `CC(C)C[C@H](NC(=O)[C@@H](O)[C@H](N)Cc1ccccc1)B(O)O` [Bestazomib, (R)-1-((2S,3R)-3-amino-2-hydroxy-4-phenylbutyramide)-3-methylbu tylboronic acid], the IC50 in assay [7] was 3.87 µM; in [8] it was 10.2 µM; in assay [1] (Homo sapiens, K562, 48 hours), 37.1 ± 2.28 µM; in [2] (Homo sapiens, U-266, 48 hours), 36.6 ± 2.07 µM; in assay [3] (Homo sapiens, A549, 48 hours), 98.4 ± 7.51 µM; in assay [4] (Homo sapiens, PC-3, 48 hours) it was 65.7 ± 5.83 µM. The IC50 was 15.5 ± 1.41 µM in [5] (Homo sapiens, U-937, 48 hours) and 79.6 ± 6.32 µM in assay [6] (setting [15]).

In the case of `CC(C)C[C@H](NC(=O)CNC(=O)c1cc(Cl)ccc1Cl)B(O)O` [Ixazomib, reference compound], the IC50 in [7] was 18.2 µM; in assay [9], 17.1 ± 2.27 µM; in assay [10], 4.04 ± 0.63 µM.
